Measured values reported in patent US10647680B2, “Urea compound, preparation method therefor and medical use thereof” (Ancureall Pharmaceutical (Shanghai) Co., Ltd., priority 2016, dated 2020).
Counter-ions that a name gives are not always drawn.

Columns and labels:
[1] = Stability test: high temperature test (60° C.); format: physicochemical; settings: exposed at 60° C. for 10 days, HPLC
Experimental: The test samples were placed into an integrated drug stability test chamber (YSEI) in an exposed way at 60° C. for 10 days. Samples were taken on the 5th and 10th days and tested according to the drug stability test indices.
(§1) An appropriate amount of test samples was taken and dissolved in acetonitrile-water (1:1), and quantitatively diluted to a solution of about 0.3 mg/ml. 20 ul of solution was injected into a liquid chromatograph (Agilent 1260 Infinity), the chromatogram was then recorded and calculated according to the percentage area method. The mobile phase was a phosphate buffer and acetonitrile aqueous solution, and then a gradient elution was carried out.

[2] = Stability test: intense light test (4500LX); format: physicochemical; settings: 4500LX±500LX light for 10 days, HPLC
Experimental: The test samples were placed into an integrated drug stability test chamber (YSEI) in an exposed way under 4500LX±500LX light for 10 days. Samples were taken on the 5th and 10th days and tested according to the drug stability test indices.
as §1

Solubility test = format: physicochemical; settings: in water at 25° C.±2° C.
Procedure, shortened: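 Fine powder added to water at 25° C.±2° C., shaken vigorously 30 s every 5 min for 30 min; dissolution judged by absence of visible particles. Classed by water volume per 1 g: 1-10 ml readily soluble, 10-30 soluble, 30-100 slightly, 100-1,000 sparingly, not dissolved in 10,000 ml insoluble.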

[3] = Stability test: high humidity test (90%); format: physicochemical; settings: 25° C., relative humidity 90%±5%, 10 days, HPLC
Experimental: The test samples were placed into an integrated drug stability test chamber (YSEI) in an exposed way at 25° C. and relative humidity of 90%±5% for 10 days. Samples were taken on the 5th and 10th days and tested according to the drug stability test indices.
as §1

[4] = test system: MV4-11 cell Bab/c nude mouse tumor model; assay: In vivo tumor growth inhibition experiment; settings: Dose 2.5 mg/kg
Experimental: Xenotransplantation in immunodeficient mice is an effective model for testing in vivo antitumor activity of compounds in animals. Bab/c immunodeficient mice are one of the most commonly used tumor cell xenografts. […] Log-phase MV4-11 cells were collected in a 50 ml of centrifuge tube (Corning), centrifuged at 1,700 rpm for 3 minutes, and the supernatant was discarded. Cells were suspended in a 50 ml 1×RPMI 1640 serum-free medium, and centrifuged, the supernatant was discarded and resuspension was performed. The cells were counted (Countess® Automated Cell Counting Apparatus, Invitrogen), prepared into […], placed on ice, and inoculated subcutaneously with 10×10^6 (0.2 ml) to the right back of 6-8-week female Bab/c nude mice (about 20 g in weight) (purchased from Shanghai Sippr-BK Experimental Animal Co., Ltd., Animal Center of Shanghai University of Traditional Chinese Medicine, approved by Ethical Committee of Shanghai University of Traditional Chinese Medicine). When the tumor grew to a size of 100-200 mm^3, animals were randomly grouped and earmarked and weighed. The treatment group consisted of 3 to 6 nude mice in each group. Drugs were prepared into different concentrations of milky suspension with a solvent PTP solution (30% polyethylene glycol 400, 0.5% Tween-80, 2.5% propylene glycol). Animals were given by oral gavage continuously at a concentration of 0.1 ml/10 g body weight, with a dose range of 0.1-200 mg/kg (the purity of the test compound of the present invention was 99% or more, and the proportion of single impurity was not more than 0.1%). In the control group, 3 to 6 nude mice in each group were given the same volume (0.1 ml/10 g body weight) of solvent PTP solution, and the tumors were measured 3 to 4 times per week. When the average tumor volume in the control group reached 1500 mm^3, or on the 28th day of administration, the experiment ended, then the tumor was weighed and subjected to molecular pathology assay.
The tumor volume was calculated as V=½a×b^2, where a is the length and b is the width. The relative tumor volume (RTV) was calculated based on the measured results and the formula was RTV=Vt/V0, where V0 is the measured tumor volume when administered in divided cages (i.e., do), and Vt is the tumor volume at each measurement.

With `COCCOc1ccc2c(c1)ncn2-c1ccc(NC(=O)Nc2cc(C(C)(C)C)n[nH]2)cc1` [Compound 77 Mesylate, 1-(5-tert-butyl-2H-pyrazol-3-yl)-3-{4-[5-(2-methoxyl-ethoxyl)-benzimidazol-1-yl]-phenyl}-urea] the “High temperature (60° C.)” value [1] was “stable”, the “Lighting (4500 LX)” value [2] was “stable” and the Solubility (Solubility test; listed as 77 Mesylate) was “soluble (“soluble” means that 1 g of the test sample could be dissolved in 10-30 ml of water)”. The “High Humidity (90%)” value [3] was “stable”.

With `CC(C)(C)c1cc(NC(=O)Nc2ccc(-n3cnc4cc(OCCN5CCOCC5)ccc43)cc2)[nH]n1` [Compound 89, 1-(5-tert-butyl-2H-pyrazol-3-yl)-3-{4-[5-(2-morpholin-4-yl-ethoxyl)-benzimidazol-1-yl]-phenyl}-urea] the “High temperature (60° C.)” value [1] was “stable”, the “Lighting (4500 LX)” value [2] was “stable” and the “Tumor Inhibition Rate (%)” value ([4]; Day 6) was 60.7%. For the same compound, the “Tumor Inhibition Rate (%)” value ([4]; Day 10) was 79.4%, the “Tumor Inhibition Rate (%)” value ([4]; Day 15) was 84.7% and the “Tumor Inhibition Rate (%)” value ([4]; Day 20) was 87.2%. For the same compound, the Solubility (Solubility test; listed as 89 Free base) was “insoluble (“nearly insoluble or insoluble” means that 1 g of the test sample could not be completely dissolved in 10,000 ml of water)” and the “High Humidity (90%)” value [3] was “stable”.
